Earlier results, collected in US7041851B2, “Fluorinated phenyl thiophenyl derivatives and their use for imaging serotonin transporters” (The Trustees of the University of Pennsylvania, priority 2002, dated 2006).

Biological target: T1, SERT (Rattus norvegicus, UniProt P31652)
T1 construct: from tissue; host or cells: rat brain in vivo (hypothalamus, striatum, hippocampus, cerebellum)
Conditions: rats, 11C-labelled; Huang et al., 2001b; cited from earlier work

T1 sequence (P31652 whole entry): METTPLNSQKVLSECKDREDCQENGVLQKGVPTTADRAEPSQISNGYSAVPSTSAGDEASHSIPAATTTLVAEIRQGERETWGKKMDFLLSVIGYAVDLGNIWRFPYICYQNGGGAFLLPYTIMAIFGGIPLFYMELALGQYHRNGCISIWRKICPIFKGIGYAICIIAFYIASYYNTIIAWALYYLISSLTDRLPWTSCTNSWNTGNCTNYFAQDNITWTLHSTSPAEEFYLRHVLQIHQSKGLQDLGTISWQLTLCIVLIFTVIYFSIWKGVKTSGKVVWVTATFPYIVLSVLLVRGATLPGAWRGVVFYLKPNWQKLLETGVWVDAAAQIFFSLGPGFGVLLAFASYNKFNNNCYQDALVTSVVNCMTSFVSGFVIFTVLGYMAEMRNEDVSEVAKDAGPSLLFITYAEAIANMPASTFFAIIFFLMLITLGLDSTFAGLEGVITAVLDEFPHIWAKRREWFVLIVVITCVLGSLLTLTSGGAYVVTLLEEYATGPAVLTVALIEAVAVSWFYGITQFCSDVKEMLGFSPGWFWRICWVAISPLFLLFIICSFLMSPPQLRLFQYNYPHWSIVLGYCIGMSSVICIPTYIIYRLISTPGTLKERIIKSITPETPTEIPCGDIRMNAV

**Q.** With CN([11CH3])Cc1ccccc1Sc1ccc(CF)cc1N [AFM] as the compound, how does the “Brain uptake and specific binding” value read?
**A.** excellent brain uptake and a high degree of specific binding
